Reference: patent US20240117303A1, “METHODS AND COMPOSITIONS FOR GENERATING HUMAN MIDBRAIN DOPAMINERGIC NEURONS FROM NEURAL PROGENITOR CELLS” (Trailhead Biosystems Inc., priority 2022, published 2024)
Several values for one entry are separate records, joined by “and”; a condition that tells them apart may be missing. Identical values can stand only once. Entries after “also recorded” stand apart in the source; their conditions may differ.

How the values were obtained:
[1] = tested on: stage 2 neural progenitors; assay: HD-DoE another 12-factor model for stage 3 recipe (FIG. 24, 25, 30); format: cell-based, human; settings: for impact on expression of SOX6 / impact on expression of MSX1: dynamic profile, 12 effectors
Experimental: In another 12-factor model, additional factors including Activin A, Takinib (TAK inhibitor), FGF8b, AZD3147 (mTOR antagonist), MHY1485 (mTOR agonist), and Yhhu-3792 (Notch agonist) were tested. Some of the factors from previous model (BMP7, A 8301, LDN193189, PD0325901, MK2206 and DBZ) were also included.
(§1) To assess the impact of elimination of each validated factor identified in Example 5 for the stage 3 and stage 4 recipes, we used dynamic profile analysis and compared the expression level of genes of interest in absence of each finalized factor while others are present.
In another model, to determine the combinatorial effect of AZD3147 and DBZ on gene profile of cells in presence of other factors of final recipe, the expression levels of SOX6 and MSX1 were compared in the absence of each of the factors in the presence of PD0325901 and BMP7. These two compounds were the only final compounds that were included in inputs of this experimental model The results are shown in FIG. 30A and FIG. 30B. […] When DBZ was removed, the level of SOX6 and MSX1 both decreased to 140 and 35, respectively.

[2] = tested on: stage 2 neural progenitors; assay: HD-DoE 12-factor model for stage 3 recipe (FIG. 19-23, 29); format: cell-based, human
Source text: To develop the neuronal differentiation recipes, the impact of various agonist and antagonists (effectors) on maturation of MB neural progenitors was investigated using the HD-DoE method described in Example 1. These effectors were chosen based on available literature on developmental biology, differentiation of stem cells as well as mouse and human single cell RNA-seq data from midbrain neurons at the time.
To engineer the recipe of stage 3 of differentiation, cells were first cultured in the stage 1 and stage 2 media as described herein, then they were treated with combinations of 8 or 12 factors for 3 days and the gene expression of cells in each condition was modeled. To guide the cells towards a subtype of midbrain dopaminergic neurons that reside in Substantia Nigra pars compacta (SNc) region of the brain, neural progenitors need to be SOX6^+ (Pereira et al. (2021) Cell Rep. 37:109975 Oosterveen et al. (2021) Stem Cell Reports 16:2718-2735 Poulin et al. (2020) Trends Neurosci. 43:155-169). CORIN, NGN2 and MSX1 are other markers involved in neurogenesis of dopaminergic neurons originating from floorplate region of developing midbrain (Wang et al. (2020) Cells 9:1489; Samata et al. (2016) Nat Commun. 7:13097; Ono et al. (2007) Development 134:3213-3225; Prakash et al. (2006) J. Physiol. 575:403410).
Therefore, we focused on maximizing expression of SOX6, CORIN, NGN2 and MSX1 in modeling experiments. One of the 12-factor models, the results of which are shown in FIG. 19, including LDN193189, AGN193109, BMP7, TTNPB, PD0325901, A8301, MHY1485, CHIR99021, XAV939, SANT-1, Purmorphamine and MK2206, provided a combination set that could maximize expression level of CORIN to more than 2000.
as §1
In the stage 3 recipe, each of the finalized factors were removed in their respective models while other factors were present and the expression level of genes of interest was assessed compared to presence of all factors. When AGN193109 was excluded, level of all CORIN, KCNJ6, MSX1 and SOX6 decreased from 900 to 450, 50 to 35, 140 to 110 and 105 to 60, respectively. […] When PD0325901 was removed, expression levels of CORIN and KCNJ6 increased to 1200 and 70 while levels of MSX1 and SOX6 decreased to 105 and 20. In the absence of CHIR99021, the expression level of CORIN was again increased to 1200 while the level of KCNJ6 and MSX1 dropped to 50 and 115. […] Therefore, it was decided to include this compound in the final recipe. […] Therefore, CHIR99021 was also included in the final recipe.

[3] = tested on: human pluripotent stem cells; assay: HD-DoE 13-factor experiment for stage 1 recipe, gene expression modeled after 3-day treatment; dynamic profile and factor criticality analysis; format: cell-based
Source text: This example utilizes a method of High-Dimensional Design of Experiments (HD-DoE), as previously described in Bukys et al. (2020) Iscience 23:101346. The method employs computerized design geometries to simultaneously test multiple process inputs and offers mathematical modeling of a deep effector/response space. The method allows for finding combinatorial signaling inputs that control a complex process, such as during cell differentiation. It allows testing of multiple plausible critical process parameters, as such parameters impact output responses, such as gene expression. Because gene expression provides hallmark features of the phenotype of, for example, a human cell, the method can be applied to identify, and understand, which signaling pathways control cell fate. In the current example, the HD-DOE method was applied with the intent to find conditions for induction of midbrain neural progenitor-expressed genes, directly from the pluripotent stem cell state.
To develop the recipe for each stage, the impact of agonists and antagonists of multiple signaling pathways (referred to herein as “effectors”) on the expression of two sets of 53 pre-selected genes after a 3-day treatment was tested and modeled. These effectors are small molecules or proteins that are commonly used during stepwise differentiation of stem cells to specific fates. The choice of the effectors to test was based on current literature on neural induction in the midbrain region of the developing brain and differentiation of stem cells to neural progenitors.
To test the effectors, experiments with at least 8 factors were designed that can assess the response of cells to 48 or more different combinations of effectors in a range of concentrations. To analyze the models, we focused on expression of genes expressed in the midbrain region, including OTX2, DMBX1, FOXA2, LMX1A, and on the absence of GBX2, which is a hindbrain marker. The impact of each effector on gene expression level is defined by a parameter called factor contribution that is calculated for each effector during the modeling.
To identify the recipe of stage 1 of differentiation, cells were treated with various effectors for 3 days and the gene expression of cells was modeled. […] This model consisted of 13 factors including LDN193189, PD173074, BLU9931, Purmorphamine, SC79, MK2206, ZM336372, PD0325901, CHIR99021, XAV939, UCLA-gp130, Tofacitinib and GO 6983.
(§2) To assess the impact of elimination of each validated factor, we used dynamic profile analysis and compared the expression level of genes of interest in absence of each finalized factor while others are present.
In the stage 1 recipe, each of the five finalized factors were removed while the other four factors were present and the expression levels of OTX2, DMBX1, FOXA2 and LMX1A was assessed compared to the levels in the presence of all five factors (FIG. 11A-B). […] Expression level of DMBX1 increased in absence of LDN193189, however values of OTX2, FOXA2 and LMX1A decreased.

[4] = tested on: stage 1 neural stem cells; assay: HD-DoE 12-factor experiment for stage 2 recipe (second model, FIG. 8-10, 13); format: cell-based, human; settings: dynamic profile, 12 effectors
Experimental: To test additional factors like FGF8 that is routinely used in midbrain differentiation protocols, we ran another 12-factor experiment consisting of LDN193189, BMP7, A 83-01, Activin A, Takinib, PD0325901, MK2206, FGF8b, AZD3147, MHY1485, GSI-XX and Yhhu 3792. Similar to the previous experiment, hiPSCs were treated with stage 1 media for 3 days and then treated with 96 conditions of combinations of the factors for an additional 3 days. When this model was optimized for maximum expression of FOXA2, BMP7 with factor contribution of 13.7 and MK2206 with 14.2 had the most impact on its expression followed by AZD 3147 with factor contribution of 10.9.
as §2
In the stage 2 recipe, each of the six finalized factors were removed while the other five factors were present and the expression levels of FOXA2, LMX1A and GBX2 were assessed, compared to the levels in the presence of all factors. According to the first experiment model, the absence of TTNPB lead to a rise of GBX2 expression, while the value of FOXA2 and LMX1A reduced drastically from 10,000 to 0 and 30,000 to 15,000, respectively. The absence of A 83-01 reduced the expression of FOXA2 from 10,000 to 7000, however, as expected, the value of LMX1A increased from 30,000 to 40,000. […] According to the second experiment model, the absence of BMP7 and MK2206 both reduced the level of FOXA2 while increasing the value of LMX1A, with BMP7 as the main effector that led to 0 expression of FOXA2.

stage 3 immature neurons = assay: HD-DoE 8-factor experiment for stage 4 recipe (FIG. 27, 28, 31); format: cell-based, human; settings: for impact on expression of NR4A2: 8-factor model / dynamic profile; for expression level of PITX3 in absence of the factor / expression level of NR4A2 in absence of the factor: stage 4 recipe, other factors present; for expression level of PITX3 in absence of the factor: 40 with all factors; for expression level of NR4A2 in absence of the factor: 400 with all factors
Experimental: To further differentiate the cells to a mature neuronal identity, additional HD-DoE experiments were performed on the cells that were cultured in stage 1, stage 2 and stage 3 differentiation media. After 4 days, gene expression of cells in different combinatorial conditions were investigated. At this time, we focused on maximal expression of more mature dopaminergic genes such as NR4A2, PITX3 and TH (Tiklová et al. (2020) Nat Commun. 11:2434; Fiorenzano et al. (2021) Nat Commun., 12:7302). In one model, cells were treated with a combinatorial matrix with eight inputs including CHIR99021, BDNF, GDNF, Rosiglitazone, GW7647, DBZ and heparin.
as §1
In the stage 4 recipe, each of six finalized factors were excluded while other factors were present and the expression levels of NR4A2 and PITX3 were assessed compared to the presence of all factors.

O=C(NOC[C@H](O)CO)c1ccc(F)c(F)c1Nc1ccc(I)cc1F [PD0325901]
level of MSX1 in absence of the factor ([1]; AZD3147, DBZ, PD0325901 and BMP7 set, 45 with all factors): 40 | level of SOX6 in absence of the factor ([1]; AZD3147, DBZ, PD0325901 and BMP7 set, 185 with all factors): 165 | impact on expression of SOX6 [1]: positive impact | factor contribution ([2]; model optimized for maximum expression of KCNJ6, positive regulators): 10.9 | factor contribution ([2]; model optimized for maximum expression of SOX6, positive impact): 13.5 | expression level of KCNJ6 in absence of the factor ([2]; stage 3 recipe, other factors present, 50 with all factors): 70 | expression level of SOX6 in absence of the factor ([2]; stage 3 recipe, other factors present, 105 with all factors): 20 | expression level of MSX1 in absence of the factor ([2]; stage 3 recipe, other factors present, 140 with all factors): 105 | expression level of CORIN in absence of the factor ([2]; stage 3 recipe, other factors present, 900 with all factors): 1200 | impact on expression of OTX2 ([3]; dynamic profile, 13 effectors): positive impact | factor contribution ([3]; model optimized for maximum expression of OTX2, positive impact, 3-day treatment): 18.1 | expression level of LMX1A in absence of the factor ([3]; stage 1 recipe, other four factors present, 300 with all five factors): 500 | expression level of FOXA2 in absence of the factor ([3]; stage 1 recipe, other four factors present, 600 with all five factors): 700 | expression level of DMBX1 in absence of the factor ([3]; stage 1 recipe, other four factors present, 3000 with all five factors): 900

CCCn1/c(=N/C(=O)c2cccc(C(N)=O)c2)[nH]c2ccccc21 [Takinib]
impact on expression of MSX1 [1]: negatively regulate; also recorded: negative impact | impact on expression of SOX6 [1]: positive effect | impact on expression of FOXA2 [4]: did not make a meaningful positive change | impact on expression of LMX1A [4]: did not make a meaningful positive change

B1: GDNF: glial cell line-derived neurotrophic factor, GDNF agonist (protein, UniProt P39905 78-211, looked up)
Glial cell line-derived …: SPDKQMAVLPRRERNRQAAAANPENSRGKGRRGQRGKNRGCVLTAIHLNVTDLGLGYETKEELIFRYCSGSCDAAETTYDKILKNLSRNRRLVSDKVGQACCRPIAFDDDLSFLDDNLVYHILRKHSAKRCGCI
impact on expression of NR4A2 (stage 3 immature neurons): positive regulatory impact | expression level of PITX3 in absence of the factor (stage 3 immature neurons): 25 | expression level of NR4A2 in absence of the factor (stage 3 immature neurons): 300

B2: BDNF: brain-derived neurotrophic factor, BDNF agonist (protein, UniProt P23560 19-247, looked up)
Neurotrophic factor BDNF …: APMKEANIRGQGGLAYPGVRTHGTLESVNGPKAGSRGLTSLADTFEHVIEELLDEDQKVRPNEENNKDADLYTSRVMLSSQVPLEPPLLFLLEEYKNYLDAANMSMRVRRHSDPARRGELSVCDSISEWVTAADKKTAVDMSGGTVTVLEKVPVSKGQLKQYFYETKCNPMGYTKEGCRGIDKRHWNSQCRTTQSYVRALTMDSKKRIGWRFIRIDTSCVCTLTIKRGR
impact on expression of NR4A2 (stage 3 immature neurons): positive impact | impact on expression level of PITX3 (stage 3 immature neurons; dynamic profile, 8 effectors): positive impact | factor contribution (stage 3 immature neurons; model maximized for NR4A2, positive regulatory impact, after 4 days): 17 and 17.1 | expression level of PITX3 in absence of the factor (stage 3 immature neurons): 10 | expression level of NR4A2 in absence of the factor (stage 3 immature neurons): 100

B3: Activin A: effector tested in the HD-DoE experiments (protein, UniProt P08476 311-426, looked up)
Inhibin beta A chain: GLECDGKVNICCKKQFFVSFKDIGWNDWIIAPSGYHANYCEGECPSHIAGTSGSSLSFHSTVINHYRMRGHSPFANLKSCCVPTKLRPMSMLYYDDGQNIIKKDIQNMIVEECGCS
modifications: Inhibin beta A chain
impact on expression of MSX1 [1]: negatively regulate; also recorded: negative impact | impact on expression of SOX6 [1]: positive effect | impact on expression of FOXA2 [4]: did not make a meaningful positive change | impact on expression of LMX1A [4]: did not make a meaningful positive change
